TGI data for 11 compounds are collected here from PubChem BioAssay (NCI).

Test systems include CAKI-1 renal; DU-145 prostate; EKVX NSCLC; HCT-116 colon; HL-60(TB) leukemia; MALME-3M melanoma; MDA-MB-231 breast; MDA-MB-435; MDA-N; NCI-H23 lung; NCI-H522 lung; RXF 393 renal; SF-539 CNS; SK-MEL-2 melanoma; SNB-19 CNS; SNB-75 CNS; U251 CNS; UACC-62 melanoma; UO-31 renal.
What all share (assay): growth of human tumour cells (NCI), 48 h

Structures are written as SMILES.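 Interpolation was linear, between the two tested concentrations surrounding the appropriate level; five concentrations were tested over 48 hours in 96-well plates. At the TGI there is no net growth.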 Where only a bound is given, the exact number is not on record here.

In the case of `Cc1ccc(S(=O)(=O)/N=C(\N)N(C)N=O)cc1`, the TGI in the test on CAKI-1 renal, with DU-145 prostate, with EKVX NSCLC, with HCT-116 colon, with HL-60(TB) leukemia and in the test with MALME-3M melanoma was more than 100 µM each time. Besides, the TGI in the test with MDA-MB-231 breast, in the test with MDA-MB-435, with MDA-N, in the test with NCI-H23 lung, with NCI-H522 lung and in the test with RXF 393 renal was more than 100 µM in each case. The TGI in the test with SF-539 CNS, with SK-MEL-2 melanoma, with SNB-19 CNS, in the test with SNB-75 CNS, in the test on U251 CNS and in the test on UACC-62 melanoma was more than 100 µM in each case. Further, the TGI in the test with UO-31 renal was more than 100 µM.
Take `CSCCC(N)P(C)(=O)O` (centres undefined): the TGI in the test with CAKI-1 renal, with DU-145 prostate, in the test on EKVX NSCLC, with HCT-116 colon, with HL-60(TB) leukemia and with MALME-3M melanoma was more than 100 µM each time. Moreover, the TGI in the test on MDA-MB-231 breast, in the test with MDA-MB-435, with MDA-N, in the test with NCI-H23 lung, in the test with NCI-H522 lung and in the test with RXF 393 renal was more than 100 µM in each case. Moreover, the TGI with SF-539 CNS, with SK-MEL-2 melanoma, in the test with SNB-19 CNS, in the test on SNB-75 CNS, in the test on U251 CNS and with UACC-62 melanoma was more than 100 µM throughout. For the same compound, the TGI with UO-31 renal is more than 100 µM.
Regarding `O=C1C(C(c2ccccc2)N2CCOCC2)=C(O)C(c2ccccc2)N1c1ccccc1` (centres undefined), the TGI in the test on CAKI-1 renal, in the test with DU-145 prostate, with EKVX NSCLC, in the test with HCT-116 colon, in the test on HL-60(TB) leukemia and with MALME-3M melanoma was more than 10 µM each time. In addition, the TGI in the test with MDA-MB-231 breast, in the test on MDA-MB-435, in the test on MDA-N, with NCI-H23 lung, in the test on NCI-H522 lung and with RXF 393 renal was more than 10 µM each time. Besides, the TGI in the test with SF-539 CNS, with SK-MEL-2 melanoma, with SNB-19 CNS, in the test on SNB-75 CNS, in the test on U251 CNS and in the test on UACC-62 melanoma was more than 10 µM in each case. Further, the TGI with UO-31 renal is more than 10 µM.
For `CCOC(=O)CC1(O)CCCCC1(Sc1ccc(C)cc1)Sc1ccc(C)cc1` (centres undefined), the TGI in the test on CAKI-1 renal is more than 100 µM; in the test with DU-145 prostate, more than 100 µM; with EKVX NSCLC, more than 100 µM; in the test with HCT-116 colon, more than 100 µM; with HL-60(TB) leukemia, more than 100 µM; in the test with MALME-3M melanoma it was 91.8 µM. Moreover, the TGI is more than 100 µM in the test with MDA-MB-231 breast; more than 100 µM in the test on MDA-MB-435; more than 100 µM in the test with MDA-N; more than 100 µM in the test on NCI-H23 lung; 51 µM in the test with NCI-H522 lung; more than 100 µM in the test with RXF 393 renal. Besides, the TGI was more than 100 µM in the test on SF-539 CNS; 65.9 µM in the test on SK-MEL-2 melanoma; more than 100 µM with SNB-19 CNS; more than 100 µM in the test on SNB-75 CNS; more than 100 µM with U251 CNS; more than 100 µM with UACC-62 melanoma. In the test on UO-31 renal, this compound returned a TGI of more than 100 µM.
As for `N/C(=N\N=C\c1c[nH]c2cc(C(F)(F)F)ccc2c1=O)NO`, the TGI in the test with CAKI-1 renal, in the test on DU-145 prostate, with EKVX NSCLC, in the test on HCT-116 colon, in the test with HL-60(TB) leukemia and in the test with MALME-3M melanoma was more than 10 µM in each case. Also, the TGI in the test on MDA-MB-231 breast, with MDA-MB-435, in the test on MDA-N, in the test with NCI-H23 lung, in the test with NCI-H522 lung and in the test on RXF 393 renal was more than 10 µM each time. Also, the TGI in the test on SF-539 CNS was more than 10 µM; in the test on SK-MEL-2 melanoma it was more than 10 µM; with SNB-19 CNS it was more than 10 µM; with SNB-75 CNS, 9.03 µM; in the test with U251 CNS, more than 10 µM; with UACC-62 melanoma, more than 10 µM. In the test on UO-31 renal, the TGI is more than 10 µM.
Turning to `O=C(O)C1=C(C(=O)O)N(c2ccncc2)C(c2ccco2)=CC1c1ccccc1[N+](=O)[O-]` (centres undefined), the TGI in the test with CAKI-1 renal was 34.6 µM; with DU-145 prostate, 24.9 µM; in the test on EKVX NSCLC, 26.6 µM; in the test with HCT-116 colon it was 3.4 µM; in the test with HL-60(TB) leukemia it was 7.85 µM; in the test with MALME-3M melanoma it was 22.3 µM. The TGI with MDA-MB-231 breast is 30.7 µM; with MDA-MB-435, more than 56 µM; in the test on MDA-N, 20.7 µM; in the test with NCI-H23 lung, 25.8 µM; in the test on NCI-H522 lung it was 9.59 µM; with RXF 393 renal it was 21.3 µM. In addition, the TGI with SF-539 CNS came to 4.55 µM; in the test on SK-MEL-2 melanoma, 37.3 µM; in the test on SNB-19 CNS, 35.5 µM; with SNB-75 CNS, 23.9 µM; in the test on U251 CNS, 28 µM; in the test with UACC-62 melanoma, 32.1 µM. This compound also showed a TGI in the test with UO-31 renal of 20.6 µM.
Regarding `CCOC(=O)[C@H](O)[C@@H](O)C(=O)NCc1ccc(C(=O)c2ccccc2)cc1`, the TGI in the test with CAKI-1 renal, in the test with DU-145 prostate, in the test on EKVX NSCLC, with HCT-116 colon, in the test with HL-60(TB) leukemia and in the test on MALME-3M melanoma was more than 100 µM throughout. The TGI with MDA-MB-231 breast, in the test with MDA-MB-435, with MDA-N, with NCI-H23 lung, in the test with NCI-H522 lung and with RXF 393 renal was more than 100 µM throughout. Also, the TGI in the test on SF-539 CNS, in the test on SK-MEL-2 melanoma, in the test with SNB-19 CNS, in the test on SNB-75 CNS, in the test with U251 CNS and in the test with UACC-62 melanoma was more than 100 µM in each case. In the test with UO-31 renal, the TGI is more than 100 µM.
On to `O=C(CC(C(=O)c1ccco1)c1cccs1)c1cccs1` (centres undefined), for which the TGI with CAKI-1 renal was more than 100 µM; in the test on DU-145 prostate, more than 100 µM; with EKVX NSCLC, 97.8 µM; in the test on HCT-116 colon, more than 100 µM; in the test on HL-60(TB) leukemia, 60.3 µM; in the test with MALME-3M melanoma, more than 100 µM. Also, the TGI in the test with MDA-MB-231 breast, in the test on MDA-MB-435, in the test on MDA-N, in the test on NCI-H23 lung, in the test with NCI-H522 lung and in the test on RXF 393 renal was more than 100 µM each time. For the same compound, the TGI in the test on SF-539 CNS, with SK-MEL-2 melanoma, in the test on SNB-19 CNS, in the test on SNB-75 CNS, in the test on U251 CNS and in the test on UACC-62 melanoma was more than 100 µM each time. In the test with UO-31 renal, this compound yielded a TGI of more than 100 µM.
As for `Cc1cccc2c(N)c3cccc(C(=O)NCC[N+](C)(C)Cc4sccc4[N+](=O)[O-])c3nc12`, the TGI was 43.9 µM with CAKI-1 renal; more than 100 µM with DU-145 prostate; more than 100 µM in the test with EKVX NSCLC; 96.8 µM in the test with HCT-116 colon; more than 100 µM in the test on HL-60(TB) leukemia; 27.7 µM in the test with MALME-3M melanoma. The TGI in the test with MDA-MB-231 breast is 67.7 µM; with MDA-MB-435 it was more than 100 µM; in the test with MDA-N it was 80.2 µM; with NCI-H23 lung, 30 µM; with NCI-H522 lung, 29.1 µM; in the test on RXF 393 renal, 33.4 µM. Also, the TGI was 14.4 µM with SF-539 CNS; more than 100 µM in the test on SK-MEL-2 melanoma; more than 100 µM in the test with SNB-19 CNS; more than 100 µM in the test on SNB-75 CNS; more than 100 µM with U251 CNS; 36 µM with UACC-62 melanoma. In the test on UO-31 renal, the TGI was more than 100 µM.
With `CC(=O)Nc1ccc(CNc2cc(=O)n(C)c(=O)[nH]2)cc1`, the TGI with CAKI-1 renal, in the test with DU-145 prostate, in the test on EKVX NSCLC, with HCT-116 colon, with HL-60(TB) leukemia and with MALME-3M melanoma was more than 100 µM in each case. In addition, the TGI in the test with MDA-MB-231 breast, in the test with MDA-MB-435, with MDA-N, in the test on NCI-H23 lung, in the test on NCI-H522 lung and in the test with RXF 393 renal was more than 100 µM throughout. The TGI in the test on SF-539 CNS, in the test with SK-MEL-2 melanoma, in the test on SNB-19 CNS, in the test with SNB-75 CNS, in the test on U251 CNS and in the test on UACC-62 melanoma was more than 100 µM each time. Moreover, the TGI in the test on UO-31 renal was more than 100 µM.
Take `CC(=O)Nc1sc([N+](=O)[O-])cc1S(=O)(=O)c1ccc(Cl)cc1`: the TGI is more than 20.8 µM in the test on CAKI-1 renal; more than 40.8 µM in the test on DU-145 prostate; more than 100 µM with EKVX NSCLC; 19.8 µM in the test with HCT-116 colon; more than 23.5 µM in the test on HL-60(TB) leukemia; 15.3 µM in the test with MALME-3M melanoma. In addition, the TGI in the test with MDA-MB-231 breast is more than 29.6 µM; with MDA-MB-435 it was more than 53.3 µM; with MDA-N, more than 100 µM; in the test with NCI-H23 lung, 14.1 µM; in the test on NCI-H522 lung, 11 µM; with RXF 393 renal, 13.5 µM. The TGI in the test on SF-539 CNS was 10.2 µM; in the test on SK-MEL-2 melanoma, 8.54 µM; in the test on SNB-19 CNS it was more than 100 µM; with SNB-75 CNS, 11.2 µM; in the test on U251 CNS, more than 35.5 µM; in the test with UACC-62 melanoma, 22.4 µM. In the test with UO-31 renal, this compound had a TGI of 14.7 µM.
